Data published in patent US20250025500A1, “PHOSPHATASE INHIBITORS AS NK CELLS MODULATORS FOR THE TREATMENT OF CANCER” (Kanyr Pharma Inc., priority 2021, published 2025).

How the values were obtained:
[1] = test system: NK-92 cells; test: NK-92 viability and proliferation under inhibitor treatment; format: cell-based, Human; settings: various IL-2 concentration, vs vehicle control
[2] = test system: NK-92 cells; test: Surface receptor expression on NK-92 (flow cytometry); format: cell-based, Human
[3] = test system: NK-92 cells; test: Degranulation assay of NK-92 (CD107a, perforin, granzyme B); format: cell-based, Human
Protocol: NK-92 cells pre-treated with L598 (30 μM) or vehicle control were stimulated with K-562 tumor target cells [effector: target (E:T) at 1:1] or PMA/lonomycin (1 μg/mL each) or no-stimulation control with K-562 complete media, respectively. Anti-CD107a or LAMP-1 antibody (1:100, PE/Cy7 conjugated, clone H4A3, from BioLegend®) was added to cells at the start of degranulation assay. Golgi stop (containing Monensin, 1 μM) and Golgi plug (containing Brefeldin A, 4 μg/mL) were added to cells one hour after degranulation assay started and were kept until the end of the 6-hour-degranulation assay. Intracellular staining of GrB (1:40, PE conjugated, clone QA18A28, from BioLegend®) and PRF (1:40, FITC conjugated, clone B-D48, from BioLegend®) were performed with the Fixation/Permeabilization Solution Kit (BD® Biosciences) according to the manufacture's protocol. Cells were stained with fixable viability dye (1:2000) for 20 mins on ice and in dark, and blocked with FcBlock (1:20, diluted in 1× Perm/Wash buffer, Human truStain FcX from BioLegend®) for 5 mins at room temperature and in dark before intracellular staining. Cell gating and percentage of population quantification was based on no-stimulation control. For kinetics of degranulation assay, measurements were taken over three hours at 15 mins, 30 mins, 60 mins, 120 mins and 180 mins, with L598 (30 μM, three days) treated group and vehicle control group under the condition of tumor target cell K-562 stimulation (E: T at 1:1) or no stimulation. Intracellular cytolytic granule contents GrA, GrB and PRF were measured as mentioned previously.

[4] = test system: cord blood isolated NK cells; test: Surface receptor expression on cord blood NK cells (flow cytometry); format: cell-based, Human; settings: 30 μM, with or without K-562 stimulation E:T 1:1, three hours
Source text: Human cord blood derived NK cells (CB-NK) were kindly provided by Dr. Linda Peltier's Cellular Therapy Laboratory at McGill University Health Center (Montreal, Canada) in frozen format and were stored in liquid nitrogen tank until usage. Briefly, 1×10^7 cells were resuspended in frozen medium consisting of ImmunoCult T Cell Medium supplemented with 10% DMSO final concentration. Frozen CB-NK cells were thawed, and ex vivo expanded at Goodman Cancer Research Center (GCRC) for five days in xeno-free ImmunoCult T cell expansion media supplemented with 10% PlasmaLyte A and freshly with a cytokine cocktail of IL-2 (5 ng/mL), IL-7 (5 ng/mL), IL-15 (5 ng/mL), SCF (15 ng/mL) and FLT3/L (10 ng/mL) every two days. […] On day three, inhibitor L598 and fresh cytokine cocktails were supplemented to the cell media. NK cell population purity and immunophenotype profiling of major activating and inhibitory receptors were assessed upon receiving shipments, after ex vivo expansion for five days and after anti-tumor cytolytic assay.

[5] = test system: PTPN1 and PTPN2 catalytic domain; settings: Montalibet J, et al., J Biol Chem 2006; cited from earlier work
[6] = test system: NK-92 cells against Reh cells; test: NK-92 cytolytic assay against NK resistant Reh target cells; format: cell-based, Human; settings: 30 μM three days, IL-2 100 IU/mL, 3 h assay
Protocol: Human NK cell line NK-92 was purchased from American Type Culture Collection (ATCC) and cultured in α-MEM Essential Medium (no ribonucleoside and deoxyribonucleoside) supplemented with 0.2 mM Myo-inositol, 0.02 mM Folic Acid, 0.1 mM β-mercaptoethanol, 1% of Non-essential Amino Acids, 1×L-Glutamax, 1% of Penicillin/Streptomycin, 12.5% of heat-inactivated Horse, and 12.5% of heat-inactivated Characterized Fetal Bovine Serum or FBS. The media was supplemented freshly with 200 IU/mL of IL-2 upon cell thawing for one passage and 100 IU/mL of IL-2 for cell expansion. Human tumor cell lines K-562 and Reh were purchased from ATCC and were cultured in RPM11640 Medium supplemented with 1% of Penicillin/Streptomycin and 10% of heat inactivated FBS. HEK293T/17 cells and HCT116 cells were cultured in Dulbecco's Modified Eagle's Medium (DMEM) High Glucose Medium supplemented with 1% of Penicillin/Streptomycin and 10% of FBS. All cell lines were maintained in 5% CO2, 37° C. incubator, except that NK-92 were maintained in 6.5% CO2 incubator at 37° C. […]
NK-92 anti-tumor cytolysis function was assessed by flow cytometry-based analysis. […] Flow cytometry sample acquisition was performed with BDO LSRFortessa™ with a UV laser at Flow Cytometry Core Facility, McGill University, and data was analyzed with FlowJo™ 10.7.1 and summarized with Prism™ 9 (GraphPad™). […]

[7] = test system: NK-92 cells against K-562 cells; test: NK-92 cytolytic assay against K-562 tumor target cells (flow cytometry); format: cell-based, Human
Protocol: Human NK cell line NK-92 was purchased from American Type Culture Collection (ATCC) and cultured in α-MEM Essential Medium (no ribonucleoside and deoxyribonucleoside) supplemented with 0.2 mM Myo-inositol, 0.02 mM Folic Acid, 0.1 mM β-mercaptoethanol, 1% of Non-essential Amino Acids, 1×L-Glutamax, 1% of Penicillin/Streptomycin, 12.5% of heat-inactivated Horse, and 12.5% of heat-inactivated Characterized Fetal Bovine Serum or FBS. The media was supplemented freshly with 200 IU/mL of IL-2 upon cell thawing for one passage and 100 IU/mL of IL-2 for cell expansion. Human tumor cell lines K-562 and Reh were purchased from ATCC and were cultured in RPM11640 Medium supplemented with 1% of Penicillin/Streptomycin and 10% of heat inactivated FBS. HEK293T/17 cells and HCT116 cells were cultured in Dulbecco's Modified Eagle's Medium (DMEM) High Glucose Medium supplemented with 1% of Penicillin/Streptomycin and 10% of FBS. All cell lines were maintained in 5% CO2, 37° C. incubator, except that NK-92 were maintained in 6.5% CO2 incubator at 37° C. All cell lines were maintained below 30 passages and tested regularly for mycoplasma infection using PCR.
NK-92 anti-tumor cytolysis function was assessed by flow cytometry-based analysis. Tumor target cells K-562 and Reh were labelled with cell tracker CFSE ([…]) or CMRA (5 μM) according to manufacturer's protocol at a maximum of one day before cytolysis experiment. On the experiment day, labelled tumor target cells were washed once with PBS and resuspend to desired cell concentration in complete cell media. NK-92 cells were washed and resuspended in complete media without cytokines to desired cell concentration. NK-92 cells and tumor target cells were plated at various effector: target (E:T) ratios with basal cell numbers at 50,000 cells per well in round-bottom 96-well plate and were co-cultured for 3 hours in 5% CO2, 37° C. incubator. After co-culture, cells were washed once with ice-cold PBS and stained with fixable viability dyes: Aqua (Invitrogen™) or UV Blue (Invitrogen™) or eFluor 780 (eBioscience Invitrogen™) at 1:2000 in dark for 20 mins at 4° C. Stained cells were washed twice with ice cold PBS and were fixed with 1% Paraformaldehyde (PFA) for 1 hour or 2% PFA for 30 mins in dark at 4° C. Flow cytometry sample acquisition was performed with BDO LSRFortessa™ with a UV laser at Flow Cytometry Core Facility, McGill University, and data was analyzed with FlowJo™ 10.7.1 and summarized with Prism™ 9 (GraphPad™). Calculation for % of specific cytolysis was followed by the equation: […]

[8] = PMA/ionomycin 1 μg/mL each, six hours, vs control
[9] = three-hours cytolytic assay, K-562 stimulation

7-bromo-6-phosphono(difluoro-methyl)-3-napthalenonitrile [L598]
NK-92 proliferation [1]: proliferate slightly faster | IL-2Rα (CD25) expression ([2]; steady state, 10 μM): upregulated | IL-2Rβ (CD122) expression ([2]; steady state, 10 μM): remained stable | CD69 and activating receptors NKp30, NKp46, NKG2D on NK-92 ([2]; with or without K-562 stimulation): upregulation | percentage of degranulating NK-92 cells (surface CD107a and intracellular lytic granules) ([3]; 30 μM pre-treatment, K-562 stimulation six hours, vs control): smaller percentage | dead tumor target K-562 cells in degranulation assay ([3]; K-562 stimulation E:T 1:1, vs control cells): more tumor target K-562 cells were found dead | degranulated NK-92 cells (CD107a+, Perforin− or Granzyme B−) under PMA and ionomycin [3, 8]: less | degranulating NK-92 cells under PMA and ionomycin [3, 8]: more | percentage of CD107a−, Perforin+ or CD107a−, Granzyme B+ population ([3]; after six-hours K-562 stimulation, vs control): larger percentage | time from which granzyme B is degranulated more rapidly [3, 9]: 60 min | time from which perforin is degranulated more rapidly [3, 9]: 30 min | CD69 and activating receptor expression on cord blood NK cells [4]: upregulation | binding specificity for PTPN1 and PTPN2 over other protein tyrosine phosphatases [5]: binds specifically to their catalytic domain but no other protein tyrosine phosphatases | NK-92 cytolysis towards NK resistant target cells Reh [6]: did not improve | NK-92 cytolysis against K-562 in presence of TGF-β1, vs vehicle control ([7]; 10 μM with TGF-β 10 ng/mL, IL-2 media, three days): continued exhibiting enhanced anti-tumor cytolysis | cytolysis against K-562 after re-treatment ([7]; additional two-days treatment at same concentration): once more improved the anti-tumor cytolysis function to a similar level of the initial treatment | tumor cytolysis by NK-92 against K-562 with inhibitor titration ([7]; dosage increased up to 90 μM, three days, various E:T ratios): gradual increasing of tumor cytolysis | enhanced cytolysis against K-562 after inhibitor withdrawal ([7]; withdrawn for three days after initial 30 μM treatment): reversible
